Entries after “also recorded” stand apart in the source; their conditions may differ.
How the values were obtained:
BCRP [1] = biological target: T1, BCRP (Homo sapiens, UniProt Q9UNQ0); assay: Bidirectional permeability in gMDCK cells overexpressing human BCRP (gMDCK-BCRP); format: in vitro ADME
T1 construct: expressed in transfected cells; host or cells: gMDCK (P-gp-knockout Madin-Darby Canine Kidney cells), puromycin selection
T1 sequence (Q9UNQ0 1-655): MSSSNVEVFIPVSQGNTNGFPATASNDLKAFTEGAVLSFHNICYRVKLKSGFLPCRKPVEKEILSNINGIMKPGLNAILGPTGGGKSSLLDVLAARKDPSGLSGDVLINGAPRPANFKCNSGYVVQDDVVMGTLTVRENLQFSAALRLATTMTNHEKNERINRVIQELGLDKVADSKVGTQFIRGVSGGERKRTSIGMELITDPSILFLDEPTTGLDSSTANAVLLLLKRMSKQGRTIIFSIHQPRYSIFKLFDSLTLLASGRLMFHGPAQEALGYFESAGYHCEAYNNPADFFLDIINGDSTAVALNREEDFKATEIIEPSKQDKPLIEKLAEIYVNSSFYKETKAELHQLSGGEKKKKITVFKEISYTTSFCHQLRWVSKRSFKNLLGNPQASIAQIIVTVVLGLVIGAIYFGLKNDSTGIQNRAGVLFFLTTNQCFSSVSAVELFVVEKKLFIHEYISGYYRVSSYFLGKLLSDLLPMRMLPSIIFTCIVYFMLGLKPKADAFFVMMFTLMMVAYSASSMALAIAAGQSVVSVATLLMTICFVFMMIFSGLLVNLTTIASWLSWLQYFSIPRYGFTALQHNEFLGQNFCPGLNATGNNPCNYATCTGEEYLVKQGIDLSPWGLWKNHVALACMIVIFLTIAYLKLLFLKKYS
Experimental: (§1) gMDCK cells were maintained in Dulbecco’s Modified Eagle’s Medium (DMEM) supplemented with Gibco’s MEM amino acids solution (1 X), penicillin (100 units/mL), streptomycin ([…]), and 10% fetal bovine serum and in a humidified, 37 °C, 5% CO2 environment as previously described. Efflux transporter-expressing gMDCK cells, gMDCK-P-gp and gMDCK-BCRP, were cultured in the above-mentioned medium with addition of puromycin (2 µg/mL). All cells were passaged at approximately 80% confluency in T-175 flasks. For permeability assays, gMDCK, gMDCK-P-gp, and gMDCK-BCRP cells were seeded on 96 transwell plates (approximately 40,000 cells/well) and allowed to grow for 48 h in a 37 °C, 5% CO2 environment. Digitonin (10–40 mg/L) was included in some experiments to loosen tight junctions to explore paracellular permeability. TEER values were measured on the day of the experiment using an EVOM^TM Auto (World Precision Instruments, Sarasota, FL, USA).
(§2) Lenalidomide dosing solutions (1–500 µM) were diluted from DMSO stock (500 mM) with HEPES-buffered HBSS (with Ca^2+ and Mg^2+, 10 mM HEPES, pH 7.4) + 20 µM Lucifer yellow resulting in a final DMSO content of 0.2%. Lucifer yellow was measured fluorometrically (Ex/Em 428/532 nm) to assess tight junctions/paracellular transport. Permeability of lenalidomide was assessed bidirectionally in both in vitro models over three hours, and cell monolayers were collected at the end of the experiment.
(§3) Briefly, for assessing apical to basolateral (A to B) permeability, 150 uL of lenalidomide dosing solutions was added to apical side of the transwell, and 250 uL of HEPES-buffered HBSS without Lucifer yellow was added to basolateral side. For evaluating basolateral to apical (B to A) permeability, 250 uL of dosing solutions was added to the basolateral side, and 150 uL of HEPES-buffered HBSS without Lucifer yellow was added to the apical side. An amount of 10 µL was sampled from the dosing side of the transwell at the beginning and the end of the experiment. An amount of 25 µL was sampled from the receiver side at 1, 2, and 3 h.
(§4) Apparent permeability (Papp) was calculated according to the following equation: Papp = (dQ/dt)/(A * C), where dQ/dt is the amount of drug that crosses the membrane per unit of time, A is the surface area of the membrane through which the drug is permeating (0.143 cm^2), and C is the initial concentration added to cells. The efflux ratio was calculated according to the following equation:(4) Efflux ratio= Papp basolateral to apical/Papp apical to basolateral

human P-gp = biological target: T2, human P-gp (Homo sapiens, UniProt P08183); assay: Bidirectional permeability in gMDCK cells overexpressing human P-gp (gMDCK-MDR1); format: in vitro ADME; conditions: gMDCK P-gp overexpressing cells and organoids
T2 construct: expressed in transfected cells; host or cells: gMDCK (P-gp-knockout Madin-Darby Canine Kidney cells), puromycin selection
T2 sequence (P08183 whole entry): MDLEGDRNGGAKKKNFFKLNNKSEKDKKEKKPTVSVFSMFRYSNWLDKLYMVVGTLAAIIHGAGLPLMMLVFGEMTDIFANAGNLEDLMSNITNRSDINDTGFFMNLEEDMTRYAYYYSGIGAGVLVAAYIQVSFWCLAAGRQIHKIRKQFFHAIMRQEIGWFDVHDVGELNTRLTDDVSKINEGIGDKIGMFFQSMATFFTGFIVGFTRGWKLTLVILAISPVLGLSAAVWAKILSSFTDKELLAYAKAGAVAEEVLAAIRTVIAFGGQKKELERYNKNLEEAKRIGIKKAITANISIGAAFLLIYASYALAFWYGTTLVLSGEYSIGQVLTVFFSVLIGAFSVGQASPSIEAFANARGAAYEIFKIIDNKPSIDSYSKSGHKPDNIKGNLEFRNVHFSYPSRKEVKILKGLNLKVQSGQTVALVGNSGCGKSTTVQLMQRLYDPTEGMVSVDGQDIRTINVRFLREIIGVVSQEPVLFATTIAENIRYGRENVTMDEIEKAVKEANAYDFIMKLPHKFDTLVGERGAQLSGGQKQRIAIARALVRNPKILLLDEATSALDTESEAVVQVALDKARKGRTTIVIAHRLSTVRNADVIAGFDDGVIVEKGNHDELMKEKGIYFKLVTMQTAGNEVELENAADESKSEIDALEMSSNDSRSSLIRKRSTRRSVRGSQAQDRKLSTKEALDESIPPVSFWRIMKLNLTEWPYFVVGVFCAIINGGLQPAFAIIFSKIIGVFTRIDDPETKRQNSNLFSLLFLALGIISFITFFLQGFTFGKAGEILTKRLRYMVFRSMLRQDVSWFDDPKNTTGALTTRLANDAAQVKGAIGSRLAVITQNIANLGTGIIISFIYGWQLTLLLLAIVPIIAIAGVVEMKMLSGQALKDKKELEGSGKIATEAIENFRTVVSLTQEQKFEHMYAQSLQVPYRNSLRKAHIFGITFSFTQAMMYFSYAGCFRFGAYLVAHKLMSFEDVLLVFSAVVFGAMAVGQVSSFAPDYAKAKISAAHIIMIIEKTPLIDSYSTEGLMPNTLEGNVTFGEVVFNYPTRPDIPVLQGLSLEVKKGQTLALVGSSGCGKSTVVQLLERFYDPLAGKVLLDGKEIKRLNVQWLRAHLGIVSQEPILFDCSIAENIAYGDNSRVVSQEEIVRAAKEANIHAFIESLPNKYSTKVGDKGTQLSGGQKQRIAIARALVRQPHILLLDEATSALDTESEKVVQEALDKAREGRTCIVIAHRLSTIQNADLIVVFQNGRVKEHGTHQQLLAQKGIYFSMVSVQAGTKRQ
Experimental: as §1, §2, §3, §4

P-gp (MDR1) = biological target: T3, P-gp (MDR1) (Homo sapiens, UniProt P08183); assay: as above; format: in vitro ADME; conditions: human, MDCK-MDR1, pH 7.4; gMDCK-MDR1
T3 construct: expressed in transfected cells; host or cells: gMDCK (P-gp-knockout Madin-Darby Canine Kidney cells), puromycin selection
T3 sequence (P08183 whole entry): as above
Experimental: as §1, §2, §3, §4

[2] = test system: MDCK cells and other traditional in vitro systems; conditions: cited from earlier work
[3] = cited from earlier work
BCRP [4] = test system: BCRP; set-up: method as in PMID 24627218; conditions: vesicles with BCRP; cited from earlier work
[5] = cited from earlier work; remark: listed apart in the source
[6] = gMDCK (P-gp knockout MDCK) monolayer permeability assay; conditions: dog, MDCK
gMDCK monolayers = assay: as above
[7] = Lenalidomide Permeability in gMDCK Cells, FaSSIF
[8] = Lenalidomide Permeability in gMDCK Cells, FeSSIF
[9] = pH 7.4, Lenalidomide Permeability in gMDCK Cells, 4% BSA in receiver compartment
[10] = pH 7.4, Lenalidomide Permeability in gMDCK Cells, shaking (1000 rpm)
[11] = pH 7.4, Lenalidomide Permeability in gMDCK Cells, typical assay conditions

## Nc1cccc2c1CN(C1CCC(=O)NC1=O)C2=O (stereo not shown) [Lenalidomide]
BCRP [1]; gMDCK BCRP overexpressing cells and organoids
  BCRP substrate: substrate for both transporters; also recorded: substrate of both P-gp and BCRP
BCRP [1]; human, pH 7.4, gMDCK-BCRP
  Papp A→B at 3 h: 1.5 nm/s
  Papp B→A at 3 h: 24 nm/s
  efflux ratio at 3 h: 16
Human P-gp
  P-gp substrate: substrate for both transporters; also recorded: substrate of both P-gp and BCRP
P-gp (MDR1)
  Papp A→B at 3 h: 2 nm/s
  Papp B→A at 3 h: 28 nm/s
  efflux ratio at 3 h: 14
[2]
  BCS class: 3
  In vitro permeability: Low
[3]; Figure 1, ref PubChem
  LogP (o/w): < 1
[3]; lower pKa
  pKa: 2.3
[3]; ref PubChem
  LogP: −0.40
BCRP [4]
  BCRP substrate: not a BCRP substrate
[5]
  Human Fa (fraction absorbed): 90% [21]
[5]; humans
  Elimination half-life: 3 to 5 h
  Metabolism: < 5%
  Oral bioavailability: > 90%
  Route of elimination: Renal
[6]; [7]
  Papp at 3 h, 10 µM: 2.7 nm/s
  Papp at 3 h, 50 µM: 2.8 nm/s
  Papp at 3 h, 250 µM: 1.7 nm/s
[6]; Lenalidomide Permeability in gMDCK Cells, FaSSIF, 500 uM
  Papp at 3 h, 500 µM: 1.3 nm/s
[6]; [8]
  Papp at 3 h, 10 µM: 0.7 nm/s
  Papp at 3 h, 50 µM: 1.4 nm/s
  Papp at 3 h, 250 µM: 1 nm/s
[6]; Lenalidomide Permeability in gMDCK Cells, FeSSIF, 500 uM
  Papp at 3 h, 500 µM: 1.4 nm/s
[6]; pH 7.4
  Papp A→B at 3 h: 2.1 nm/s
  Papp B→A at 3 h: 1.3 nm/s
  efflux ratio at 3 h: 0.62
[6]; [9]
  Papp at 3 h, 10 µM: 1.2 nm/s
  Papp at 3 h, 50 µM: 1.6 nm/s
  Papp at 3 h, 250 µM: 1.5 nm/s
[6]; pH 7.4, Lenalidomide Permeability in gMDCK Cells, 4% BSA in receiver compartment, 500 uM
  Papp at 3 h, 500 µM: 1.5 nm/s
[6]; [10]
  Papp at 3 h, 10 µM: 0.3 nm/s
  Papp at 3 h, 50 µM: 0.3 nm/s
  Papp at 3 h, 250 µM: 1.4 nm/s
[6]; pH 7.4, Lenalidomide Permeability in gMDCK Cells, shaking (1000 rpm), 500 uM
  Papp at 3 h, 500 µM: 2.1 nm/s
[6]; [11]
  Papp at 3 h, 10 µM: 1.9 nm/s
  Papp at 3 h, 50 µM: 2.2 nm/s
  Papp at 3 h, 250 µM: 2.4 nm/s
[6]; pH 7.4, Lenalidomide Permeability in gMDCK Cells, typical assay conditions, 500 uM
  Papp at 3 h, 500 µM: 2.4 nm/s
[6]; pH 7.4, apparent permeability (Papp), gMDCK cell monolayers, independent of concentration
  Papp at 3 h: ~2 nm/s
[6]; pH 7.4, gMDCK Papp, lenalidomide 500 µM, apical to basolateral, n=3 biological replicates
  Papp at 3 h, 500 µM: 2.1 nm/s
gMDCK monolayers; gMDCK, sink condition
  effect of 4% bovine serum albumin in the receiver side on apparent permeability: did not increase
gMDCK monolayers; shaking transwell plate at 1000 rpm
  effect of shaking gMDCK cells during the permeability assay on permeability: did not significantly change

From paper PMC12473906, “Comparing the Altis RepliGut Organoid System to MDCK Monolayers in Predicting the Oral Absorption of Lenalidomide” (Pharmaceutics, 2025)
